The results in this text go back to ChEMBL document CHEMBL4680271, “COVID-19: Drug Targets and Potential Treatments” (J Med Chem, 2020).

A short description of the assay: Inhibition of CTSL/CTSB in 293T/17 cells harboring ACE2 assessed as reduction in SARS-CoV-2 S pseudovirions entry into host cell incubated for 2 days by luciferase method. It counts as cell-based. The conditions noted are these: Severe acute respiratory syndrome-related coronavirus, HEK293T/17, 48 h.

Usually pIC50 stands for the IC50 on a negative log10 scale, so that one unit is a factor of ten.

pIC50: −log10 of the molar value.

For `CC(C)(C)N1CCN(C(=O)N[C@@H](Cc2ccccc2)C(=O)N[C@H](/C=C/S(=O)(=O)c2ccccc2)CCc2ccccc2)CC1`, the pIC50 was 10.10.
In the case of `CN1CCN(C(=O)N[C@@H](Cc2ccccc2)C(=O)N[C@H](/C=C/S(=O)(=O)c2ccccc2)CCc2ccccc2)CC1` [K-777], the pIC50 is 9.49.
